Source: patent US20230270773A1, “METHODS OF TREATING CANCER WITH A STING AGONIST” (Immunesensor Therapeutics, Inc., priority 2019, published 2023)
“Also recorded” adds a separate entry of the source.

What was measured:
[1] = system: AG104 (fibrosarcoma); assay: AG104 syngeneic tumor model, intratumoral; type: in vivo, mouse
Description: Note that several of these tumors such as B16F10, 4T1, LL2 and AG104 are known to be refractory to antibodies against PD-1, PD-L1, or CTLA-4. In the B16F10 tumor model, twice weekly injection of Compound A for two weeks was efficacious in a dose-dependent manner in the range from 0.1 µg to 10 µg (0.005-0.5 mg/kg).

[2] = system: 4T1 (breast cancer); assay: 4T1 PD-L1 antibody-resistant tumor model; type: in vivo, BALB/c mice
Description: (§1) Compound A was evaluated alone and in combination with 200 µg of the PD-L1 antibody used in Example 6 in immune checkpoint blockade-resistant tumors. In these studies, mice were implanted with LL2 (lung cancer), 4T1 (breast cancer), AG104Ld (fibrosarcoma), and AG104A (fibrosarcoma) tumors. Following implantation, the animals were dosed intratumorally or subcutaneously with 0.5 mg/kg of Compound A alone or in combination with the PD-L1 antibody, as shown in the table below: […]

[3] = system: IFNα, IL-6, TNFα and other cytokines; assay: Plasma cytokine levels in cynomolgus monkeys; type: in vivo
Description: Male and female cynomolgus monkeys were assigned to groups and doses of Compound A were administered. Animals were dosed via subcutaneous injection at a volume of 2 mL/kg. The vehicle control article/diluent was phosphate-buffered saline (PBS).
Escalation of Compound A dose levels was tolerated up to 3.0 mg/kg/dose, with findings limited to increased body temperature and elevated IFNα, IL-6, and TNFα cytokine levels. IFNα, TNFα, and IL-6 levels were measured at 3, 6, and 12 hours post-dosing. Dose related but variable changes were observed. […] TNFα levels increased at 3 hours in the 1 mg/kg group. […] The cytokine responses are consistent with the predicted STING pathway activation.

[4] = system: AG104A fibrosarcoma; assay: Abscopal effect, AG104A fibrosarcoma bilateral tumor model; type: in vivo, C3B6F1 mice; settings: intratumoral into primary tumor, PD-L1 antibody 200 µg
Description: C3B6F1 mice (N=8) bearing AG104A tumors on both left and right flanks were treated intratumorally on the right flank (primary) with Compound A on Days 5, 8, 11, and 15 after tumor inoculation. Tumors on the left flank (distant) were not treated.
(§2) An abscopal effect is an immune-mediated phenomenon wherein direct treatment of a primary tumor can lead to a response in a distant tumor. The potential abscopal effect of Compound A was evaluated in B16 melanoma and AG104A fibrosarcoma tumor models evaluating mice bearing tumors on both right flank (primary tumor) and left flank (secondary tumor). In both models, Compound A was administered intratumorally into the primary tumor on days 5, 8, 11 and 15 after tumor inoculation. The secondary tumor was not treated.

[5] = Compound A levels in plasma after dosing of mice; type: in vivo, C57BL/6 mice
Description: The pharmacokinetic/pharmacodynamic properties of Compound A were evaluated in C57BL/6 mice following dosing by subcutaneous, intramuscular, or intravenous routes of administration. Blood was collected post-dosing for the measurement of Compound A and cytokine levels in plasma.

[6] = system: MC38 (colon); assay: MC38 syngeneic tumor model; type: in vivo, mouse
[7] = system: B16 melanoma; assay: Abscopal effect, B16 melanoma bilateral tumor model; type: in vivo, mice; settings: intratumoral into primary tumor, 0.15 and 0.5 mg/kg
Description: as §2

[8] = system: AG104Ld (fibrosarcoma); assay: AG104LD PD-L1 antibody-resistant tumor model; type: in vivo, B6C3F1 mice; settings: Compound A 0.5 mg/kg SC, days 4, 7, 11, 14, 18, 21; PD-L1 antibody 200 µg
Description: as §1

[9] = Toxicological studies in the rat; type: in vivo
Text: The toxicological evaluations of Compound A included studies in the rat and cynomolgus monkey (non-human primate [NHP]) and should be relevant to assessing potential human risk, as the STING pathway, the target of Compound A, is conserved across species.
The non-good laboratory practice (GLP) studies in the rat and NHP covered a broad range of doses and regimens. The objective of these studies was to evaluate the effects of Compound A following multiple ascending doses, single doses, and multiple doses.

[10] = Metabolic stability in in vitro systems; type: in vitro ADME, and monkey; settings: human, rat, mouse, dog, monkey
[11] = system: syngeneic tumors; assay: Combination with PD-L1 antibody in multiple syngeneic tumor models; type: in vivo, mouse; settings: tumors otherwise refractory to immune checkpoint inhibitors
Text: Several of these studies are described in the examples below.

[12] = Pharmacokinetics in mice, subcutaneous vs intravenous; settings: mouse, in vivo
Description: (§3) The nonclinical pharmacokinetics (PK) of subcutaneously, intravenously, or intratumorally administered Compound A was investigated in mice at the doses of 0.1 and/or 0.5 mg/kg.

[13] = Pharmacokinetics after intratumoral administration in B16F10 tumor bearing mice; type: in vivo; settings: female B16F10 tumor bearing mice
Description: as §3

Nc1nc2c(ncn2[C@@H]2O[C@@H]3COP(=O)(O)OC4C(O)[C@H](n5cnc6c(N)ncnc65)O[C@@H]4COP(=O)(O)OC2C3OCC(F)(F)F)c(=O)[nH]1 (stereo partly shown) [Compound A]
tumor growth inhibition [1]: highly effective in inhibiting tumor growth | efficacy (tumor growth and survival) ([2]; Compound A 0.5 mg/kg IT, days 5, 8, 11, 15, PD-L1 antibody 200 µg): suppressed tumor growth and prolonged mouth survival | tumor growth inhibition ([2]; intratumoral): highly effective in inhibiting tumor growth | IFNα levels ([3]; 1 mg/kg and 3 mg/kg groups, 3 and 6 hours post dosing): Moderate levels of IFNα | TNFα levels ([3]; 1 mg/kg group, 3 hours): increased | TNFα levels ([3]; 3 mg/kg and 10 mg/kg groups): Lower levels of TNFα | IL-6 increases ([3]; 3 mg/kg and 10 mg/kg, 12 hours postdose): persisted at 12 hours postdose | cytokine levels, time course ([3]; NHP, non-GLP studies of Example 2): increases in the first 3-6 hours with return to baseline in most cases by 6-24 hours | plasma IL-6 levels ([3]; all groups, 3 and 6 hours post dosing): Increases in plasma IL-6 levels | tumor growth/volume, primary and distant tumors ([4]; 0.15 and 0.5 mg/kg, days 5, 8, 11, 15): tumor growth was suppressed in both primary and distant tumors; also recorded: significantly decreased | survival [4]: survival was significantly prolonged; also recorded: increases the survival | concentration at 15 minutes ([5]; C57BL/6, mouse, plasma, 15 minutes after injection, subcutaneous, intramuscular or intravenous, read-out: Compound A level in plasma): 5 to 15 µM | Compound A in circulation ([5]; at 15 minutes, subcutaneous or intratumoral): detectable | Levels of Compound A ([5]; by 1 hour, subcutaneous, intratumoral or intravenous): below the limit of quantitation (BLOQ) | Compound A level in plasma ([5]; one hour after administration): below the limit of detection | Cmax, comparison between administration routes ([5]; subcutaneous, intramuscular, intravenous): not significantly different between administration routes | tumor growth inhibition ([6]; intratumoral): highly effective in inhibiting tumor growth | anti-tumor efficacy ([6]; subcutaneous): also effective | survival [7]: survival was significantly prolonged | tumor growth/volume, primary and distant tumors ([7]; days 5, 8, 11, 15): tumor growth was suppressed in both primary and distant tumors; also recorded: significantly decreased | efficacy (tumor growth and survival) [8]: suppressed tumor growth and prolonged mouth survival | mortality ([9]; 3.0 mg/kg dose level): Mortality was also seen | mortality ([9]; GLP rat study, high doses group 10 and 30 mg/kg): Mortality was seen | moribundity and death ([9]; mid and high dose levels, rat study): Moribundity and death was seen | toxicokinetic findings ([9]; rat and NHP toxicology studies, multiple dose): no sex related differences, dose proportionality, and no accumulation | cause of deaths ([9]; rat, highest dose levels): pulmonary edema | half-life [10]: > 120 min | responsiveness to PD-L1 antibody [11]: restored responsiveness to PD-L1 antibody | bioavailability ([12]; sc, subcutaneous 0.5 mg/kg, male mice, subcutaneous AUC0-t vs intravenous AUC0-t, read-out: bioavailability (F)): 121% | clearance ([12]; mice, systemic compartment, read-out: clearance (CL) (converted)): 16.8 mL/min/kg | half-life ([12]; mice, read-out: t½): ~15 min | Vd ([12]; mice, read-out: volume of distribution (Vss)): 0.255 L/kg | Frel in plasma ([13]; intratumoral 0.1 mg/kg): 105% | Frel in plasma ([13]; intratumoral 0.5 mg/kg): 112%
